# Data taken from PubChem BioAssay (NCI).
#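 Briefly, cells in 96-well plates were exposed to five compound concentrations for 48 h, and endpoints were estimated by linear interpolation. TGI denotes the concentration required for complete inhibition of growth.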
# Experiments:
# Experiment in all cases: inhibition of tumour cell growth, NCI panel, 48 h
# NCI-H226 lung = test system: NCI-H226 lung
# LOX IMVI melanoma = test system: LOX IMVI melanoma
# MOLT-4 leukemia = test system: MOLT-4 leukemia
# TK-10 renal = test system: TK-10 renal
# PC-3 prostate = test system: PC-3 prostate
# RXF 393 renal = test system: RXF 393 renal
# HOP-62 NSCLC = test system: HOP-62 NSCLC
# NCI-H522 lung = test system: NCI-H522 lung
# KM12 colon = test system: KM12 colon
# SF-539 CNS = test system: SF-539 CNS
# MDA-MB-231 breast = test system: MDA-MB-231 breast
# RPMI-8226 leukemia = test system: RPMI-8226 leukemia
# MCF7 breast = test system: MCF7 breast
# SK-MEL-2 melanoma = test system: SK-MEL-2 melanoma
# HCC-2998 colon = test system: HCC-2998 colon
# HL-60(TB) leukemia = test system: HL-60(TB) leukemia
# IGROV1 ovarian = test system: IGROV1 ovarian
# NCI/ADR-RES ovarian = test system: NCI/ADR-RES ovarian
# SNB-75 CNS = test system: SNB-75 CNS
# SN12C renal = test system: SN12C renal
# A549 NSCLC = test system: A549 NSCLC
# HOP-92 NSCLC = test system: HOP-92 NSCLC
# COLO 205 colon = test system: COLO 205 colon
# HCT-116 colon = test system: HCT-116 colon
# HS 578T breast = test system: HS 578T breast
# HCT-15 colon = test system: HCT-15 colon
# OVCAR-3 ovarian = test system: OVCAR-3 ovarian
# NCI-H23 lung = test system: NCI-H23 lung
# CCRF-CEM leukemia = test system: CCRF-CEM leukemia
# SK-MEL-28 melanoma = test system: SK-MEL-28 melanoma
# MDA-N = test system: MDA-N
# SK-MEL-5 melanoma = test system: SK-MEL-5 melanoma
# SF-268 CNS = test system: SF-268 CNS
# SK-OV-3 ovarian = test system: SK-OV-3 ovarian
# MDA-MB-435 = test system: MDA-MB-435
# CAKI-1 renal = test system: CAKI-1 renal
# NCI-H460 lung = test system: NCI-H460 lung
# SF-295 CNS = test system: SF-295 CNS
# EKVX NSCLC = test system: EKVX NSCLC
# BT-549 breast = test system: BT-549 breast
# ACHN renal = test system: ACHN renal
# U251 CNS = test system: U251 CNS
# SW-620 colon = test system: SW-620 colon
# M14 melanoma = test system: M14 melanoma
# A498 renal = test system: A498 renal
# SR leukemia = test system: SR leukemia
# 786-0 renal = test system: 786-0 renal
# MALME-3M melanoma = test system: MALME-3M melanoma
# SNB-19 CNS = test system: SNB-19 CNS
# OVCAR-5 ovarian = test system: OVCAR-5 ovarian
# K-562 leukemia = test system: K-562 leukemia
# OVCAR-8 ovarian = test system: OVCAR-8 ovarian
# UACC-62 melanoma = test system: UACC-62 melanoma
# UO-31 renal = test system: UO-31 renal
# T-47D breast = test system: T-47D breast
# OVCAR-4 ovarian = test system: OVCAR-4 ovarian
# HT29 colon = test system: HT29 colon
# DU-145 prostate = test system: DU-145 prostate
# UACC-257 melanoma = test system: UACC-257 melanoma
smiles,measurement,setting,value
C=C(C)C(=O)OC1C[C@H](COC(C)=O)C2CC=C(C)C2C2OC(=O)C(=C)[C@H]12 (some centres not stated),TGI,NCI-H226 lung,31.8 µM
same,TGI,LOX IMVI melanoma,4.86 µM
same,TGI,MOLT-4 leukemia,5.24 µM
same,TGI,TK-10 renal,18.1 µM
same,TGI,PC-3 prostate,15.1 µM
same,TGI,RXF 393 renal,14.1 µM
same,TGI,HOP-62 NSCLC,27.7 µM
same,TGI,NCI-H522 lung,3.06 µM
same,TGI,KM12 colon,24.2 µM
same,TGI,SF-539 CNS,10.1 µM
same,TGI,MDA-MB-231 breast,13.5 µM
same,TGI,RPMI-8226 leukemia,2.61 µM
same,TGI,MCF7 breast,14.7 µM
same,TGI,SK-MEL-2 melanoma,15.9 µM
same,TGI,HCC-2998 colon,29.2 µM
same,TGI,HL-60(TB) leukemia,2.83 µM
same,TGI,IGROV1 ovarian,25.5 µM
same,TGI,NCI/ADR-RES ovarian,6.23 µM
same,TGI,SNB-75 CNS,24.2 µM
same,TGI,SN12C renal,13.1 µM
same,TGI,A549 NSCLC,34.2 µM
same,TGI,HOP-92 NSCLC,5.9 µM
same,TGI,COLO 205 colon,6.17 µM
same,TGI,HCT-116 colon,3.3 µM
same,TGI,HS 578T breast,14 µM
same,TGI,HCT-15 colon,5.17 µM
same,TGI,OVCAR-3 ovarian,5.3 µM
same,TGI,NCI-H23 lung,14.2 µM
same,TGI,CCRF-CEM leukemia,5.03 µM
same,TGI,SK-MEL-28 melanoma,7.08 µM
same,TGI,MDA-N,10.3 µM
same,TGI,SK-MEL-5 melanoma,20.3 µM
same,TGI,SF-268 CNS,7.21 µM
same,TGI,SK-OV-3 ovarian,31 µM
same,TGI,MDA-MB-435,10.9 µM
same,TGI,CAKI-1 renal,7 µM
same,TGI,NCI-H460 lung,34.4 µM
same,TGI,SF-295 CNS,33.8 µM
same,TGI,EKVX NSCLC,23.4 µM
same,TGI,BT-549 breast,14.4 µM
same,TGI,ACHN renal,11.8 µM
same,TGI,U251 CNS,22.1 µM
same,TGI,SW-620 colon,6.53 µM
same,TGI,M14 melanoma,4.23 µM
same,TGI,A498 renal,27.8 µM
same,TGI,SR leukemia,5.07 µM
same,TGI,786-0 renal,7.26 µM
same,TGI,MALME-3M melanoma,2.55 µM
same,TGI,SNB-19 CNS,31.8 µM
same,TGI,OVCAR-5 ovarian,25.5 µM
same,TGI,K-562 leukemia,5.56 µM
same,TGI,OVCAR-8 ovarian,13.3 µM
same,TGI,UACC-62 melanoma,16.7 µM
same,TGI,UO-31 renal,4.91 µM
same,TGI,T-47D breast,20.8 µM
same,TGI,OVCAR-4 ovarian,5.57 µM
same,TGI,HT29 colon,18 µM
same,TGI,DU-145 prostate,16.5 µM
same,TGI,UACC-257 melanoma,13.2 µM
CO/C(N)=C(\C#N)N=Cc1ccccc1,TGI,NCI-H226 lung,> 100 µM
same,TGI,LOX IMVI melanoma,> 100 µM
same,TGI,MOLT-4 leukemia,> 100 µM
same,TGI,TK-10 renal,> 100 µM
same,TGI,PC-3 prostate,> 100 µM
same,TGI,RXF 393 renal,> 100 µM
same,TGI,HOP-62 NSCLC,> 100 µM
same,TGI,NCI-H522 lung,> 100 µM
same,TGI,KM12 colon,> 100 µM
same,TGI,SF-539 CNS,> 100 µM
same,TGI,MDA-MB-231 breast,> 100 µM
same,TGI,RPMI-8226 leukemia,> 100 µM
same,TGI,MCF7 breast,> 100 µM
same,TGI,SK-MEL-2 melanoma,> 100 µM
same,TGI,HCC-2998 colon,> 100 µM
same,TGI,HL-60(TB) leukemia,> 100 µM
same,TGI,IGROV1 ovarian,> 100 µM
same,TGI,NCI/ADR-RES ovarian,> 100 µM
same,TGI,SNB-75 CNS,> 100 µM
same,TGI,SN12C renal,> 100 µM
same,TGI,A549 NSCLC,> 100 µM
same,TGI,HOP-92 NSCLC,> 100 µM
same,TGI,COLO 205 colon,> 100 µM
same,TGI,HCT-116 colon,> 100 µM
same,TGI,HS 578T breast,> 100 µM
same,TGI,HCT-15 colon,> 100 µM
same,TGI,OVCAR-3 ovarian,> 100 µM
same,TGI,NCI-H23 lung,> 100 µM
same,TGI,CCRF-CEM leukemia,> 100 µM
same,TGI,SK-MEL-28 melanoma,> 100 µM
same,TGI,MDA-N,> 100 µM
same,TGI,SK-MEL-5 melanoma,> 100 µM
same,TGI,SF-268 CNS,> 100 µM
same,TGI,SK-OV-3 ovarian,> 100 µM
same,TGI,MDA-MB-435,> 100 µM
same,TGI,CAKI-1 renal,> 100 µM
same,TGI,NCI-H460 lung,> 100 µM
same,TGI,SF-295 CNS,> 100 µM
same,TGI,EKVX NSCLC,> 100 µM
same,TGI,BT-549 breast,> 100 µM
same,TGI,ACHN renal,> 100 µM
same,TGI,U251 CNS,> 100 µM
same,TGI,SW-620 colon,> 100 µM
same,TGI,M14 melanoma,> 100 µM
same,TGI,A498 renal,> 100 µM
same,TGI,SR leukemia,> 100 µM
same,TGI,786-0 renal,> 100 µM
same,TGI,MALME-3M melanoma,> 100 µM
same,TGI,SNB-19 CNS,> 100 µM
same,TGI,OVCAR-5 ovarian,> 100 µM
same,TGI,K-562 leukemia,> 100 µM
same,TGI,OVCAR-8 ovarian,> 100 µM
same,TGI,UACC-62 melanoma,> 100 µM
same,TGI,UO-31 renal,> 100 µM
same,TGI,T-47D breast,> 100 µM
same,TGI,OVCAR-4 ovarian,> 100 µM
same,TGI,HT29 colon,> 100 µM
same,TGI,DU-145 prostate,> 100 µM
same,TGI,UACC-257 melanoma,> 100 µM
CC(C)(C)c1cc(C(C)(C)C)c2c(c1O)OC(=O)CS2,TGI,NCI-H226 lung,26.3 µM
same,TGI,LOX IMVI melanoma,24 µM
same,TGI,MOLT-4 leukemia,> 45.8 µM
same,TGI,TK-10 renal,21.7 µM
same,TGI,PC-3 prostate,> 64.7 µM
same,TGI,RXF 393 renal,13.7 µM
same,TGI,HOP-62 NSCLC,32.6 µM
same,TGI,NCI-H522 lung,14.3 µM
same,TGI,KM12 colon,17.8 µM
same,TGI,SF-539 CNS,12.5 µM
same,TGI,MDA-MB-231 breast,52.4 µM
same,TGI,RPMI-8226 leukemia,> 100 µM
same,TGI,MCF7 breast,> 31.2 µM
same,TGI,SK-MEL-2 melanoma,28.1 µM
same,TGI,HCC-2998 colon,14 µM
same,TGI,HL-60(TB) leukemia,10.7 µM
same,TGI,IGROV1 ovarian,> 60.2 µM
same,TGI,NCI/ADR-RES ovarian,20.6 µM
same,TGI,SNB-75 CNS,6.84 µM
same,TGI,SN12C renal,21.8 µM
same,TGI,A549 NSCLC,> 68.2 µM
same,TGI,HOP-92 NSCLC,> 47.7 µM
same,TGI,COLO 205 colon,9.89 µM
same,TGI,HCT-116 colon,13.4 µM
same,TGI,HS 578T breast,20 µM
same,TGI,HCT-15 colon,14.9 µM
same,TGI,OVCAR-3 ovarian,18.1 µM
same,TGI,NCI-H23 lung,18.1 µM
same,TGI,CCRF-CEM leukemia,> 25.3 µM
same,TGI,SK-MEL-28 melanoma,> 54.5 µM
same,TGI,MDA-N,14.8 µM
same,TGI,SK-MEL-5 melanoma,9.77 µM
same,TGI,SF-268 CNS,23.2 µM
same,TGI,SK-OV-3 ovarian,> 95.1 µM
same,TGI,MDA-MB-435,20.1 µM
same,TGI,CAKI-1 renal,> 62.7 µM
same,TGI,NCI-H460 lung,9.13 µM
same,TGI,SF-295 CNS,18.8 µM
same,TGI,EKVX NSCLC,25.6 µM
same,TGI,BT-549 breast,23.9 µM
same,TGI,ACHN renal,> 41 µM
same,TGI,U251 CNS,17.9 µM
same,TGI,SW-620 colon,37.7 µM
same,TGI,M14 melanoma,41.2 µM
same,TGI,A498 renal,66.9 µM
same,TGI,SR leukemia,> 48.7 µM
same,TGI,786-0 renal,28.5 µM
same,TGI,MALME-3M melanoma,> 93.7 µM
same,TGI,SNB-19 CNS,21.5 µM
same,TGI,OVCAR-5 ovarian,41 µM
same,TGI,K-562 leukemia,40.6 µM
same,TGI,OVCAR-8 ovarian,> 78 µM
same,TGI,UACC-62 melanoma,5.11 µM
same,TGI,UO-31 renal,20.5 µM
same,TGI,T-47D breast,22.9 µM
same,TGI,OVCAR-4 ovarian,> 74.6 µM
same,TGI,HT29 colon,21.5 µM
same,TGI,DU-145 prostate,51.6 µM
same,TGI,UACC-257 melanoma,> 66.7 µM
